Data on nine compounds can be found in ChEMBL document CHEMBL5385944, “Hydrazyl hydroxycoumarins as new potential conquerors towards Pseudomonas aeruginosa” (Bioorg Med Chem Lett, 2024).

Converted amounts (≈) assume the structure as drawn.

Common to all, as to assay type: functional
The test system of assay [1] is Pseudomonas aeruginosa. As to the kind of experiment: Antibacterial activity against Pseudomonas aeruginosa ATCC 90027 assessed as reduction in bacterial growth by CLSI protocol based method.
For assay [2], the system named is Pseudomonas aeruginosa. The assay is described as follows: Antibacterial activity against Pseudomonas aeruginosa ATCC 10104 assessed as reduction in bacterial growth by CLSI protocol based method.
For assay [3], the system named is Staphylococcus aureus. As to the kind of experiment: Antibacterial activity against Staphylococcus aureus ATCC 29213 assessed as reduction in bacterial growth by CLSI protocol based method.
Another assay concerns Klebsiella pneumoniae. The assay is described as follows: Antibacterial activity against Klebsiella pneumoniae assessed as reduction in bacterial growth by CLSI protocol based method.
Assay [4] concerns Staphylococcus aureus. The assay is described as follows: Antibacterial activity against Staphylococcus aureus ATCC 25923 assessed as reduction in bacterial growth by CLSI protocol based method.
The subject of the next assay is Escherichia coli. As to the kind of experiment: Antibacterial activity against Escherichia coli ATCC 25922 assessed as reduction in bacterial growth by CLSI protocol based method.
For assay [5], the system named is Pseudomonas aeruginosa. As to the kind of experiment: Antibacterial activity against Pseudomonas aeruginosa ATCC 27853 assessed as reduction in bacterial growth by CLSI protocol based method.
The subject of assay [6] is Staphylococcus aureus. As to the kind of experiment: Antibacterial activity against methicillin resistant Staphylococcus aureus 43300 assessed as reduction in bacterial growth by CLSI protocol based method.
For a further assay, the system named is Enterococcus faecalis. As to the kind of experiment: Antibacterial activity against Enterococcus faecalis assessed as reduction in bacterial growth by CLSI protocol based method.
The test system of assay [7] is Staphylococcus aureus. The assay is described as follows: Antibacterial activity against methicillin resistant Staphylococcus aureus assessed as reduction in bacterial growth by CLSI protocol based method.
Assay [8] relates to Pseudomonas aeruginosa. The assay is described as follows: Antibacterial activity against Pseudomonas aeruginosa assessed as reduction in bacterial growth by CLSI protocol based method.
For the next assay, the system named is Acinetobacter baumannii. As to the kind of experiment: Antibacterial activity against Acinetobacter baumannii assessed as reduction in bacterial growth by CLSI protocol based method.

With `COC(=O)N/N=C/c1c(O)ccc2ccc(=O)oc12`, the MIC worked out at 128 µg/mL (≈ 488 µM) in the assay on Pseudomonas aeruginosa [1]; 512 µg/mL (≈ 1950 µM) with Pseudomonas aeruginosa [2]; 512 µg/mL (≈ 1950 µM) in the assay on Staphylococcus aureus [3]; 128 µg/mL (≈ 488 µM) in the assay with Klebsiella pneumoniae; 64 µg/mL (≈ 244 µM) with Staphylococcus aureus [4]; 1 µg/mL (≈ 3.81 µM) with Escherichia coli. The MIC with Pseudomonas aeruginosa [5] was 256 µg/mL (≈ 976 µM); in the assay on Staphylococcus aureus [6] it was 512 µg/mL (≈ 1950 µM); with Enterococcus faecalis, 256 µg/mL (≈ 976 µM); with Staphylococcus aureus [7], 512 µg/mL (≈ 1950 µM); in the assay with Pseudomonas aeruginosa [8] it was 32 µg/mL (≈ 122 µM); in the assay with Acinetobacter baumannii, 128 µg/mL (≈ 488 µM).

Consider `O=c1ccc2ccc(O)c(/C=N/Nc3ccc(S(=O)(=O)Nc4nccs4)cc3)c2o1`, for which the MIC in the assay with Pseudomonas aeruginosa [1] worked out at 256 µg/mL (≈ 579 µM); in the assay on Pseudomonas aeruginosa [2], 512 µg/mL (≈ 1160 µM); in the assay on Staphylococcus aureus [3], 256 µg/mL (≈ 579 µM); with Klebsiella pneumoniae, 512 µg/mL (≈ 1160 µM); in the assay with Staphylococcus aureus [4], 256 µg/mL (≈ 579 µM); in the assay on Escherichia coli it was 512 µg/mL (≈ 1160 µM). For the same compound, the MIC turned out to be 256 µg/mL (≈ 579 µM) in the assay with Pseudomonas aeruginosa [5]; 512 µg/mL (≈ 1160 µM) in the assay with Staphylococcus aureus [6]; 512 µg/mL (≈ 1160 µM) with Enterococcus faecalis; 512 µg/mL (≈ 1160 µM) with Staphylococcus aureus [7]; 256 µg/mL (≈ 579 µM) in the assay with Pseudomonas aeruginosa [8]; 256 µg/mL (≈ 579 µM) with Acinetobacter baumannii.

On to `CC(=O)Nc1ccc(S(=O)(=O)N/N=C/c2c(O)ccc3ccc(=O)oc23)cc1`, for which the MIC came to 64 µg/mL (≈ 159 µM) with Pseudomonas aeruginosa [1]; 512 µg/mL (≈ 1280 µM) in the assay on Pseudomonas aeruginosa [2]; 512 µg/mL (≈ 1280 µM) in the assay on Staphylococcus aureus [3]; 512 µg/mL (≈ 1280 µM) in the assay on Klebsiella pneumoniae; 512 µg/mL (≈ 1280 µM) in the assay on Staphylococcus aureus [4]; 256 µg/mL (≈ 638 µM) in the assay on Escherichia coli. In addition, the MIC is 512 µg/mL (≈ 1280 µM) with Pseudomonas aeruginosa [5]; 512 µg/mL (≈ 1280 µM) in the assay on Staphylococcus aureus [6]; 512 µg/mL (≈ 1280 µM) in the assay on Enterococcus faecalis; 512 µg/mL (≈ 1280 µM) in the assay with Staphylococcus aureus [7]; 512 µg/mL (≈ 1280 µM) in the assay with Pseudomonas aeruginosa [8]; 128 µg/mL (≈ 319 µM) in the assay on Acinetobacter baumannii.

Consider `O=C(N/N=C/c1c(O)ccc2ccc(=O)oc12)c1ccc(O)cc1`, for which the MIC with Pseudomonas aeruginosa [1] is 512 µg/mL (≈ 1580 µM); in the assay on Pseudomonas aeruginosa [2], 512 µg/mL (≈ 1580 µM); in the assay with Staphylococcus aureus [3] it was 512 µg/mL (≈ 1580 µM); in the assay with Klebsiella pneumoniae it was 256 µg/mL (≈ 789 µM); in the assay with Staphylococcus aureus [4], 512 µg/mL (≈ 1580 µM); with Escherichia coli, 512 µg/mL (≈ 1580 µM). Besides, the MIC with Pseudomonas aeruginosa [5], in the assay with Staphylococcus aureus [6], with Enterococcus faecalis, in the assay with Staphylococcus aureus [7], with Pseudomonas aeruginosa [8] and with Acinetobacter baumannii was 512 µg/mL (≈ 1580 µM) each time.

`O=C(N/N=C/c1c(O)ccc2ccc(=O)oc12)c1ccc([N+](=O)[O-])cc1`: the MIC in the assay on Pseudomonas aeruginosa [1] was found to be 512 µg/mL (≈ 1450 µM); with Pseudomonas aeruginosa [2], 512 µg/mL (≈ 1450 µM); in the assay on Staphylococcus aureus [3], 512 µg/mL (≈ 1450 µM); in the assay on Klebsiella pneumoniae, 512 µg/mL (≈ 1450 µM); with Staphylococcus aureus [4], 512 µg/mL (≈ 1450 µM); in the assay on Escherichia coli it was 4 µg/mL (≈ 11.3 µM). Further, the minimal inhibitory concentration (MIC) with Pseudomonas aeruginosa [5], in the assay on Staphylococcus aureus [6], in the assay with Enterococcus faecalis, in the assay on Staphylococcus aureus [7], with Pseudomonas aeruginosa [8] and in the assay with Acinetobacter baumannii was 512 µg/mL (≈ 1450 µM) throughout.

For the compound `O=c1ccc2ccc(O)c(/C=N/NS(=O)(=O)c3cccc4ccccc34)c2o1`, the MIC in the assay with Pseudomonas aeruginosa [1] came out at 256 µg/mL (≈ 649 µM); in the assay on Pseudomonas aeruginosa [2] it was 128 µg/mL (≈ 325 µM); with Staphylococcus aureus [3], 512 µg/mL (≈ 1300 µM); in the assay on Klebsiella pneumoniae, 512 µg/mL (≈ 1300 µM); in the assay with Staphylococcus aureus [4] it was 512 µg/mL (≈ 1300 µM); in the assay on Escherichia coli, 256 µg/mL (≈ 649 µM). Further, the MIC in the assay with Pseudomonas aeruginosa [5] came to 256 µg/mL (≈ 649 µM); in the assay with Staphylococcus aureus [6], 16 µg/mL (≈ 40.6 µM); in the assay with Enterococcus faecalis, 512 µg/mL (≈ 1300 µM); in the assay on Staphylococcus aureus [7], 256 µg/mL (≈ 649 µM); in the assay with Pseudomonas aeruginosa [8], 64 µg/mL (≈ 162 µM); with Acinetobacter baumannii, 256 µg/mL (≈ 649 µM).

As to `O=C(N/N=C/c1c(O)ccc2ccc(=O)oc12)c1ccc(F)cc1`, the MIC worked out at 512 µg/mL (≈ 1570 µM) with Pseudomonas aeruginosa [1]; 128 µg/mL (≈ 392 µM) in the assay on Pseudomonas aeruginosa [2]; 512 µg/mL (≈ 1570 µM) with Staphylococcus aureus [3]; 256 µg/mL (≈ 785 µM) with Klebsiella pneumoniae; 256 µg/mL (≈ 785 µM) with Staphylococcus aureus [4]; 256 µg/mL (≈ 785 µM) in the assay on Escherichia coli. Besides, the MIC in the assay with Pseudomonas aeruginosa [5] worked out at 512 µg/mL (≈ 1570 µM); with Staphylococcus aureus [6], 16 µg/mL (≈ 49 µM); in the assay on Enterococcus faecalis, 512 µg/mL (≈ 1570 µM); in the assay with Staphylococcus aureus [7] it was 512 µg/mL (≈ 1570 µM); in the assay on Pseudomonas aeruginosa [8] it was 512 µg/mL (≈ 1570 µM); in the assay on Acinetobacter baumannii, 256 µg/mL (≈ 785 µM).

`N=C(N)N/N=C/c1c(O)ccc2ccc(=O)oc12`: the MIC stood at 4 µg/mL (≈ 16.2 µM) in the assay on Pseudomonas aeruginosa [1]; 512 µg/mL (≈ 2080 µM) in the assay on Pseudomonas aeruginosa [2]; 64 µg/mL (≈ 260 µM) in the assay on Staphylococcus aureus [3]; 512 µg/mL (≈ 2080 µM) in the assay on Klebsiella pneumoniae; 512 µg/mL (≈ 2080 µM) in the assay on Staphylococcus aureus [4]; 256 µg/mL (≈ 1040 µM) in the assay on Escherichia coli. For the same compound, the MIC came out at 256 µg/mL (≈ 1040 µM) with Pseudomonas aeruginosa [5]; 256 µg/mL (≈ 1040 µM) in the assay on Staphylococcus aureus [6]; 32 µg/mL (≈ 130 µM) with Enterococcus faecalis; 512 µg/mL (≈ 2080 µM) in the assay with Staphylococcus aureus [7]; 4 µg/mL (≈ 16.2 µM) with Pseudomonas aeruginosa [8]; 256 µg/mL (≈ 1040 µM) in the assay on Acinetobacter baumannii.

Take `O=c1ccc2ccc(O)c(/C=N/NS(=O)(=O)c3ccccc3)c2o1`: the MIC in the assay with Pseudomonas aeruginosa [1] amounted to 512 µg/mL (≈ 1490 µM); in the assay on Pseudomonas aeruginosa [2], 512 µg/mL (≈ 1490 µM); with Staphylococcus aureus [3] it was 32 µg/mL (≈ 92.9 µM); with Klebsiella pneumoniae, 2 µg/mL (≈ 5.81 µM); with Staphylococcus aureus [4], 512 µg/mL (≈ 1490 µM); in the assay on Escherichia coli it was 512 µg/mL (≈ 1490 µM). In addition, the MIC with Pseudomonas aeruginosa [5], in the assay on Staphylococcus aureus [6], in the assay on Enterococcus faecalis, with Staphylococcus aureus [7], in the assay on Pseudomonas aeruginosa [8] and with Acinetobacter baumannii was 512 µg/mL (≈ 1490 µM) in each case.
